Measured values taken from ChEMBL document CHEMBL1201862, “PubChem BioAssay data set” (2004).
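Assay format: 96-well plates, 48-hour exposure. At the GI50, growth is halved.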 Active and inactive are the calls of the source. Cut-off read from the data, not from the text of the source: active = GI50 up to about 1.1 µM and inactive = higher.

Legend:
Assay in all cases: NCI anticancer screen, dose series, 48 h
786-0 = test system: 786-0
BT-549 = test system: BT-549
EKVX = test system: EKVX
HCC 2998 = test system: HCC 2998
HOP-62 = test system: HOP-62
IGROV-1 = test system: IGROV-1
KM12 = test system: KM12
MDA-MB-435 = test system: MDA-MB-435
MDA-N = test system: MDA-N
Malme-3M = test system: Malme-3M
OVCAR-3 = test system: OVCAR-3
OVCAR-5 = test system: OVCAR-5
PC-3 = test system: PC-3
RPMI-8226 = test system: RPMI-8226
SK-MEL-5 = test system: SK-MEL-5
SNB-75 = test system: SNB-75
TK-10 = test system: TK-10
U-251 = test system: U-251
HL-60 = test system: HL-60
LOX IMVI = test system: LOX IMVI

Measured: GI50

CC(C)N/C(=N\C#N)NS(=O)(=O)c1cnccc1Nc1ccc(Cl)cc1
inactive: 786-0 > 100 µM | BT-549 > 100 µM | EKVX > 100 µM | HCC 2998 > 100 µM | HOP-62 > 100 µM | IGROV-1 > 100 µM | KM12 > 100 µM | MDA-MB-435 > 100 µM | MDA-N > 100 µM | Malme-3M > 100 µM | OVCAR-3 > 100 µM | OVCAR-5 > 100 µM | PC-3 > 100 µM | RPMI-8226 > 100 µM | SK-MEL-5 > 100 µM | SNB-75 > 100 µM | TK-10 > 100 µM | U-251 > 100 µM

CC(C)(C)C(=O)N(C(=S)OCc1ccccn1)c1ccccc1
inactive: 786-0 35.8 µM | BT-549 42.1 µM | EKVX 15.5 µM | HL-60 19.9 µM | HOP-62 13.2 µM | IGROV-1 19.9 µM | KM12 26.4 µM | LOX IMVI 23.9 µM | MDA-MB-435 > 100 µM | MDA-N 41.6 µM | Malme-3M 13.8 µM | OVCAR-3 30.9 µM | OVCAR-5 32.4 µM | PC-3 35.2 µM | RPMI-8226 12.2 µM | SK-MEL-5 20 µM | TK-10 > 100 µM | U-251 42 µM

Clc1cccc(/C=c2\nc(-c3ccccc3)n3c2nc2ccccc23)c1
inactive: 786-0 > 100 µM | BT-549 88.3 µM | EKVX 28.5 µM | HL-60 > 100 µM | HOP-62 71.3 µM | IGROV-1 > 100 µM | KM12 > 100 µM | LOX IMVI > 100 µM | MDA-MB-435 > 100 µM | MDA-N > 100 µM | Malme-3M > 100 µM | OVCAR-3 > 100 µM | OVCAR-5 > 100 µM | PC-3 > 100 µM | RPMI-8226 > 100 µM | SK-MEL-5 > 100 µM | SNB-75 20 µM | TK-10 87.1 µM | U-251 60.4 µM

CCCCCCCCCc1c(O)c(O)c(CCCCCCCCC)c(CCCCCCCCC)c1CCCCCCCCC
inactive: 786-0 > 100 µM | BT-549 > 100 µM | EKVX > 100 µM | HCC 2998 > 100 µM | HL-60 26.4 µM | HOP-62 > 100 µM | IGROV-1 > 100 µM | KM12 > 100 µM | LOX IMVI > 100 µM | MDA-MB-435 47.2 µM | MDA-N 50.6 µM | Malme-3M 96.8 µM | OVCAR-3 37.9 µM | OVCAR-5 > 100 µM | PC-3 > 100 µM | RPMI-8226 > 100 µM | SK-MEL-5 > 100 µM | TK-10 > 100 µM | U-251 > 100 µM

COc1cc(CNc2ccc3nc4n(c(=O)c3c2)CCCCC4)cc(OC)c1OC
inactive: 786-0 > 100 µM | BT-549 19.6 µM | EKVX 36.6 µM | HL-60 > 100 µM | HOP-62 95.1 µM | IGROV-1 95.1 µM | KM12 58.6 µM | LOX IMVI 55.2 µM | MDA-MB-435 31.7 µM | MDA-N 46.2 µM | Malme-3M 30.7 µM | OVCAR-3 39.8 µM | OVCAR-5 > 100 µM | PC-3 44.4 µM | RPMI-8226 72.3 µM | SK-MEL-5 22.3 µM | SNB-75 48.9 µM | TK-10 84.7 µM | U-251 > 100 µM

CCOC(=O)c1sc2c(c1O)c(=O)n(-c1ccccc1)c(=S)n2-c1ccccc1
inactive: 786-0 > 100 µM | BT-549 56.6 µM | HCC 2998 > 100 µM | HL-60 35.1 µM | IGROV-1 > 100 µM | KM12 46.7 µM | LOX IMVI > 100 µM | MDA-MB-435 > 100 µM | MDA-N > 100 µM | Malme-3M > 100 µM | OVCAR-3 51.1 µM | OVCAR-5 > 100 µM | RPMI-8226 28.2 µM | SK-MEL-5 > 100 µM | SNB-75 37.5 µM | TK-10 > 100 µM | U-251 76.6 µM

CC(C)(C)OC(=O)NCCNC(=O)OCc1ccccc1
inactive: 786-0 > 100 µM | BT-549 > 100 µM | EKVX > 100 µM | HCC 2998 > 100 µM | HOP-62 > 100 µM | IGROV-1 > 100 µM | KM12 > 100 µM | MDA-MB-435 > 100 µM | MDA-N > 100 µM | Malme-3M > 100 µM | OVCAR-3 > 100 µM | OVCAR-5 > 100 µM | PC-3 > 100 µM | RPMI-8226 > 100 µM | SK-MEL-5 50.6 µM | SNB-75 > 100 µM | TK-10 > 100 µM | U-251 > 100 µM
